What was measured:
Type in all cases: biochemical
[1] = target: T1, HDAC9 enzyme (Homo sapiens, UniProt Q9UKV0); assay: HDAC9 Enzyme Inhibitory Assay (HDAC-Glo class IIa); settings: 1 μM test compound, wells without enzyme = 100% inhibition; for inhibition at 1 µM: read-out: HDAC9 inhibitory rate (%) (1 μM)
T1 construct: transducing full length HDAC9 gene into Sf-9 insect cells; made in house; host or cells: Sf-9 insect cells
Procedure, shortened: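 Luminescent HDAC-Glo class IIa readout after a 20 min room-temperature reaction; relative inhibition referenced to enzyme-free wells as 100%. Test compound first preincubated 60 min with Sf-9-expressed, Ni-NTA-purified full-length HDAC9 in pH 7.5 Tris buffer containing 135 mM NaCl, 0.6 mM glutathione and 0.01% Tween-20.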

[2] = target: T2, HDAC1 enzyme (Homo sapiens, UniProt Q13547); assay: HDAC1/6 Enzyme Inhibitory Assay (HDAC-Glo I/II Assay kit), HDAC1; settings: 1 μM test compound, wells without enzyme = 100% inhibition; for inhibition at 1 µM: read-out: HDAC1 inhibitory rate (%) (1 μM)
T2 construct: transducing full length HDAC1 and HDAC6 genes into Sf-9 insect cells; GST; purchased SignalChem; host or cells: Sf-9 insect cells
T2 sequence (Q13547 whole entry): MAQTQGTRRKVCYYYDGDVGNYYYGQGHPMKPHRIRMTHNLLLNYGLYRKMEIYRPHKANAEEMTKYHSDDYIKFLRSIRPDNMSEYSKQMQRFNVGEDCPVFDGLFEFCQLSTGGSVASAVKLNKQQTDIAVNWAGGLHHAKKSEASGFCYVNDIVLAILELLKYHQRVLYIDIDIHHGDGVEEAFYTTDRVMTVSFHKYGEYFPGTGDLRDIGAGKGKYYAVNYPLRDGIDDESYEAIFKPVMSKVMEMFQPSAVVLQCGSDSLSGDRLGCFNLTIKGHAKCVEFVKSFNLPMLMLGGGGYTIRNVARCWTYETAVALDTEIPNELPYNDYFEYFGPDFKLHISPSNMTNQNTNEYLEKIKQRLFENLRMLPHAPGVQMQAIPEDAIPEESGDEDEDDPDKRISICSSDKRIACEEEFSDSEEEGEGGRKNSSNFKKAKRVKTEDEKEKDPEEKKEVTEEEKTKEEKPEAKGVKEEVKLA
Procedure, shortened: (§1)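 Full-length human HDAC1 or HDAC6, expressed in Sf-9 cells and GST-purified, was preincubated with compound for 60 min at room temperature in Tris-HCl pH 7.5 buffer with MgCl2, KCl, NaCl, glutathione and Tween-20. HDAC-Glo substrate-developer was then added, and luminescence was read after 20 min. Inhibition was referenced to no-enzyme wells as 100%.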

[3] = target: T3, HDAC6 enzyme (Homo sapiens, UniProt Q9UBN7); assay: HDAC1/6 Enzyme Inhibitory Assay (HDAC-Glo I/II Assay kit), HDAC6; settings: 1 μM test compound, wells without enzyme = 100% inhibition; for inhibition at 1 µM: read-out: HDAC6 inhibitory rate (%) (1 μM)
T3 construct: transducing full length HDAC1 and HDAC6 genes into Sf-9 insect cells; GST; purchased SignalChem; host or cells: Sf-9 insect cells
T3 sequence (Q9UBN7 1-1215): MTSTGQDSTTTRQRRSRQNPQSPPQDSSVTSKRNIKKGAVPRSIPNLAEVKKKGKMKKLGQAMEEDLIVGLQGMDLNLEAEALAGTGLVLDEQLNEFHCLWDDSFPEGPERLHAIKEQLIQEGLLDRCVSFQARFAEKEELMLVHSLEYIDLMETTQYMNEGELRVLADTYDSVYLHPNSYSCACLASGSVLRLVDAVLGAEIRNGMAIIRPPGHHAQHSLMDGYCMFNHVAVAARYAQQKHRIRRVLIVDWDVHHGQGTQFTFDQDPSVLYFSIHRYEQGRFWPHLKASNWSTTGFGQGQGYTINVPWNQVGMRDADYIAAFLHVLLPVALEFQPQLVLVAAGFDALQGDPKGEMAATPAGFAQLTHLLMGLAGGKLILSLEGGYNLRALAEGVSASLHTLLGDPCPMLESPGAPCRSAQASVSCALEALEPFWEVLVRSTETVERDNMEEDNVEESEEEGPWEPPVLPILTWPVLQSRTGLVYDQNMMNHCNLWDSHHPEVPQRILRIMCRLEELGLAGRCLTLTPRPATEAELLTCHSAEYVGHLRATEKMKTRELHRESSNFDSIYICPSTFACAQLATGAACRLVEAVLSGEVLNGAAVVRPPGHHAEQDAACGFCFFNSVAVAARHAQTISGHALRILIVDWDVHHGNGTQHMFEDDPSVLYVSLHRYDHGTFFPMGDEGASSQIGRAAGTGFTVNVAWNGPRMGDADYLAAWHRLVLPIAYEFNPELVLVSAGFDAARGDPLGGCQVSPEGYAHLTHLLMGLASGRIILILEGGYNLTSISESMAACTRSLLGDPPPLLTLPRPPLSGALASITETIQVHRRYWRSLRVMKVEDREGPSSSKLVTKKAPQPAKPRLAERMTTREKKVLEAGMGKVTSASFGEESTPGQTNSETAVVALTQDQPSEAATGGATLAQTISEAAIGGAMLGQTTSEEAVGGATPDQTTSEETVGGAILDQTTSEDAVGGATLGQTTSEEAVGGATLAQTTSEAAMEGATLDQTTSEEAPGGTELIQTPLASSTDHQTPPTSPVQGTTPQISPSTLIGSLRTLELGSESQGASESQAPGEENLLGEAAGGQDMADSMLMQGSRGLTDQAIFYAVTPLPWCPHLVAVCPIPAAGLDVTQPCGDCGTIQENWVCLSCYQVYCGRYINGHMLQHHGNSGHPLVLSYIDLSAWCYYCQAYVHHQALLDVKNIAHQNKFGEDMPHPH
Procedure, shortened: as §1

T1 sequence (Q9UKV0 whole entry, species assumed): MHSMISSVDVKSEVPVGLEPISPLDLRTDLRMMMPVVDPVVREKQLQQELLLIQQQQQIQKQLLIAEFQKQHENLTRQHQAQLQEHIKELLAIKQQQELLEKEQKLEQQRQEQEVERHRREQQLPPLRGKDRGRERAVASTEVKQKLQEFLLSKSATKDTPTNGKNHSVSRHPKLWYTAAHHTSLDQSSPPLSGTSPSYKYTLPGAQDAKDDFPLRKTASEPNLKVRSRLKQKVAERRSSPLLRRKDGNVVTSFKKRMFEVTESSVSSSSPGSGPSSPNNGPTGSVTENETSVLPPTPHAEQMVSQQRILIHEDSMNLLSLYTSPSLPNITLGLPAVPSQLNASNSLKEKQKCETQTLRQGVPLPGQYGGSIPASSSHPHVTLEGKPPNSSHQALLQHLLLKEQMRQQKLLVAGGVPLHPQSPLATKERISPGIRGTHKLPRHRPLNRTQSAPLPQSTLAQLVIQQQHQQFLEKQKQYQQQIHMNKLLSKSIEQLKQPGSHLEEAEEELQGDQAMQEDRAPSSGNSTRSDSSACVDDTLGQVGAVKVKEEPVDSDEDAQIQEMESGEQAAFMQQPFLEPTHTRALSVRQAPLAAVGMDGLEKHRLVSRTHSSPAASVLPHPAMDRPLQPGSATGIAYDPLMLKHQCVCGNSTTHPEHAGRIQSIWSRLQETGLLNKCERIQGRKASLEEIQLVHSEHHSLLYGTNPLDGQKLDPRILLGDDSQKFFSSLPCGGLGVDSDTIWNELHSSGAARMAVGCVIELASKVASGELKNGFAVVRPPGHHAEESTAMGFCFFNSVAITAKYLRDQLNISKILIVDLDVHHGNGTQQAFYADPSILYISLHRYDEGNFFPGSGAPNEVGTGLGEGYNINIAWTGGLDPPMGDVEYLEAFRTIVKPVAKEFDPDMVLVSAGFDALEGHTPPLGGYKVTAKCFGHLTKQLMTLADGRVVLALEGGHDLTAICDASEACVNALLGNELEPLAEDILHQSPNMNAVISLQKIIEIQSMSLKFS

SMILES	inhibition at 1 µM [1] [%]	inhibition at 1 µM [2] [%]	inhibition at 1 µM [3] [%]	HDAC9 inhibitory rate (%) (1 μM) ([1]; 1 µM)	HDAC1 inhibitory rate (%) (1 μM) ([2]; 1 µM)	HDAC6 inhibitory rate (%) (1 μM) ([3]; 1 µM)
O=C(c1ccccc1)N1C[C@@H](N2Cc3ccc(-c4noc(C(F)(F)F)n4)cc3C2=O)[C@H](c2ccccc2)C1 (relative stereo) [Example 10, trans-2-(1-benzoyl-4-phenylpyrrolidin-3-yl)-6-(5-(trifluoromethyl)-1,2,4-oxadiazol-3-yl)isoindolin-1-one]	96	63	96			
O=C1C[C@](Cc2ccccc2)(N2Cc3ccc(-c4noc(C(F)(F)F)n4)cc3C2=O)CN1 [Example 61, 2-((3S)-3-benzyl-5-oxopyrrolidin-3-yl)-6-(5-(trifluoromethyl)-1,2,4-oxadiazol-3-yl)isoindolin-1-one]	93	41	99			
C[C@H](c1ccccc1)N1CC[C@H]2CC[C@H](N3Cc4ccc(-c5noc(C(F)(F)F)n5)cc4C3=O)[C@H]21 [Example 63, 2-((3aR,6S,6aS)-1-((1R)-1-phenylethyl)octahydrocyclopenta[b]pyrrol-6-yl)-6-(5-(trifluoromethyl)-1,2,4-oxadiazol-3-yl)isoindolin-1-one]	82	15	90			
O=C(N[C@@H]1CCCC[C@H]1N1Cc2ccc(-c3noc(C(F)(F)F)n3)cc2C1=O)N1CC2CC(C1)O2 [Example 164, N-((1R,2R)-2-(1-oxo-6-(5-(trifiuoromethyl)-1,2,4-oxadiazol-3-yl)-1,3-dihydro-2H-isoindol-2-yl)cyclohexyl)-6-oxa-3-azabicyclo[3.1.1]heptane-3-carboxamide]	18	1	97			
O=C(N[C@H]1CCCC[C@@H]1N1Cc2ccc(-c3noc(C(F)(F)F)n3)cc2C1=O)C1CC1 [Example 33, N-((1S,2S)-2-(1-oxo-6-(5-(trifluoromethyl)-1,2,4-oxadiazol-3-y)-1,3-dihydro-2H-isoindol-2-yl)cyclohexyl)cyclopropanecarboxamide]	46	7	83			
O=C1c2cc(-c3noc(C(F)(F)F)n3)ccc2CN1[C@@H]1CCNC[C@H]1c1ccc(F)c(F)c1 (relative stereo) [Example 46, 2-(trans-3-(3,4-difluorophenyl)piperidin-4-yl)-6-(5-(trifluoromethyl)-1,2,4-oxadiazol-3-yl)isoindolin-1-one]	99	94	99			
O=C1c2cc(-c3noc(C(F)(F)F)n3)ccc2CN1[C@H]1CCNC[C@@H]1c1ccccc1 [Example 31, 2-((3S,4S)-3-phenylpiperidin-4-yl)-6-(5-(trifluoromethyl)-1,2,4-oxadiazol-3-yl)isoindolin-1-one]	97	78	99			
N[C@@H]1CCCC[C@H]1N1Cc2ccc(-c3noc(C(F)(F)F)n3)cc2C1=O (relative stereo) [Example 7, trans-2-(2-aminocyclohexyl)-6-(5-(trifluoromethyl)-1,2,4-oxadiazol-3-yl)isoindolin-1-one]	72	6	76			
Cc1ccc([C@@H]2CNCC[C@H]2N2Cc3ccc(-c4noc(C(F)(F)F)n4)cc3C2=O)cc1 (relative stereo) [Example 47, 2-(trans-3-(4-methylphenyl)piperidin-4-yl)-6-(5-(trifluoromethyl)-1,2,4-oxadiazol-3-yl)isoindolin-1-one]	99	90	95			
CC(C)(C)OC(=O)N1C[C@@H](N2Cc3ccc(-c4noc(C(F)(F)F)n4)cc3C2=O)[C@H](c2ccccc2)C1 (relative stereo) [Example 2, tert-butyl trans-3-(1-oxo-6-(5-(trifluoromethyl)-1,2,4-oxadiazol-3-yl)-1,3-dihydro-2H-isoindol-2-yl)-4-phenylpyrrolidine-1-carboxylate]	90	33	98			
O=C1c2cc(-c3noc(C(F)(F)F)n3)ccc2CN1[C@@H]1CCNC[C@H]1c1ccc(F)cc1 (relative stereo) [Example 45, 2-(trans-3-(4-fluorophenyl)piperidin-4-yl)-6-(5-(trifluoromethyl)-1,2,4-oxadiazol-3-yl)isoindolin-1-one]	99	94	100			
O=C1c2cc(-c3noc(C(F)(F)F)n3)ccc2CN1[C@@H]1CCNC[C@H]1c1ccccc1 [Example 15, 2-((3R,4R)-3-phenylpiperidin-4-yl)-6-(5-(trifluoromethyl)-1,2,4-oxadiazol-3-yl)isoindolin-1-one]	99	97	98			

Now from value to molecule:

inhibition at 1 µM [1] [%]	inhibition at 1 µM [2] [%]	inhibition at 1 µM [3] [%]	HDAC9 inhibitory rate (%) (1 μM) ([1]; 1 µM)	HDAC1 inhibitory rate (%) (1 μM) ([2]; 1 µM)	HDAC6 inhibitory rate (%) (1 μM) ([3]; 1 µM)	SMILES
32	1	95				COC1CN(C(=O)N[C@@H]2CCCC[C@H]2N2Cc3ccc(-c4noc(C(F)(F)F)n4)cc3C2=O)C1 [Example 163, 3-methoxy-N-((1R,2R)-2-(1-oxo-6-(5-(trifluoromethyl)-1,2,4-oxadiazol-3-yl)-1,3-dihydro-2H-isoindol-2-yl)cyclohexyl)azetidine-1-carboxamide]
86	16	98				O=C(N[C@H]1CCOC[C@@H]1N1Cc2ccc(-c3noc(C(F)(F)F)n3)cc2C1=O)[C@@H]1CC1(F)F [Example 201, (1S)-2,2-difluoro-N-((3R,4S)-3-(1-oxo-6-(5-(trifluoromethyl)-1,2,4-oxadiazol-3-yl)-1,3-dihydro-2H-isoindol-2-yl)tetrahydro-2H-pyran-4-yl)cyclopropanecarboxamide]
44	11	99				O=C(CC1(O)CCCC1)N[C@@H]1CCCC[C@H]1N1Cc2ccc(-c3noc(C(F)(F)F)n3)cc2C1=O [Example 91, 2-(1-hydroxycyclopentyl)-N-((1R,2R)-2-(1-oxo-6-(5-(trifluoromethyl)-1,2,4-oxadiazol-3-yl)-1,3-dihydro-2H-isoindol-2-yl)cyclohexyl)acetamide]
36	-5	99				O=C1c2cc(-c3noc(C(F)(F)F)n3)ccc2CN1[C@@H]1CCCC[C@H]1NC(=O)C1(c2ccccc2)COC1 [Example 134, N-((1R,2R)-2-(1-oxo-6-(5-(trifluoromethyl)-1,2,4-oxadiazol-3-yl)-1,3-dihydro-2H-isoindol-2-yl)cyclohexyl)-3-phenyloxetane-3-carboxamide]
			67	9	98	CC1(C(=O)N[C@@H]2CCCC[C@H]2N2Cc3ccc(-c4noc(C(F)(F)F)n4)cc3C2=O)CC1(F)F (stereo partly drawn) [Example 171, 2,2-difluoro-1-methyl-N-((1R,2R) 2-(1-oxo-6-(5-(trifluoromethyl)-1,2,4-oxadiazol-3-yl)-1,3-dihydro-2H-isoindol-2-yl)cyclohexyl)cyclopropanecarboxamide]
90	30	92				O=C(Cc1ccc(F)cc1)N1CC(N2Cc3ncc(-c4noc(C(F)(F)F)n4)cc3C2=O)C1 [Example 77, 6-(1-((4-fluorophenyl)acetyl)azetidin-3-yl)-3-(5-(trifluoromethyl)-1,2,4-oxadiazol-3-yl)-6,7-dihydro-5H-pyrrolo[3,4-b]pyridin-5-one]

Source: patent publication US10308643B2, “Heterocyclic compound” (Takeda Pharmaceutical Company Limited, priority 2015, dated 2019)
